Calls of active or inactive are those of the source. No cut-off for these calls is given here. Square brackets hold non-standard residues; d marks the D form. Peptide text beside a SMILES is read from it. * marks the point of attachment. Boc = CC(C)(C)OC(=O)*
Tests used:
[1] = target: T1, fMet-Leu-Phe receptor (Homo sapiens, UniProt P21462); test: Antagonist activity at formyl peptide receptor in human HL60 cells assessed as inhibition of intracellular calcium mobilization incubated for 5 mins prior to fMLP challenge by Fura-2 method; type: functional, cell-based, HL-60
T1 sequence (P21462 whole entry): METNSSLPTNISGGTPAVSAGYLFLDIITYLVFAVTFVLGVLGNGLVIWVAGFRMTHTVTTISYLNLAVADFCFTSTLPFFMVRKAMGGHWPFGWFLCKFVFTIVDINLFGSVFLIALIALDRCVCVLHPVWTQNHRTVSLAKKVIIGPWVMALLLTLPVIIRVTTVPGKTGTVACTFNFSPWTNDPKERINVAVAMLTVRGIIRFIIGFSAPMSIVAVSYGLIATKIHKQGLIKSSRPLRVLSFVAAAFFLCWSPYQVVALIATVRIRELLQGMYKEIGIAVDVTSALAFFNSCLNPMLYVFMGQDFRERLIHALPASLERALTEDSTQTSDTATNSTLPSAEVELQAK

[2] = target: T2, fMet-Leu-Phe receptor (Homo sapiens) (UniProt P21462); test: Agonist activity at formyl peptide receptor in human HL60 cells at 10 uM by Fura-2 method; type: cell-based; details: HL-60
T2 sequence (whole entry): T1 sequence (P21462 whole entry)

[3] = target: T2, fMet-Leu-Phe receptor (Homo sapiens); test: Antagonist activity at formyl peptide receptor in human HL60 cells assessed as fMLP EC50 at 1 uM incubated for 5 mins prior to fMLP challenge by Fura-2 method; type: cell-based; details: HL-60
[4] = target: T1, fMet-Leu-Phe receptor; test: Antagonist activity at formyl peptide receptor in human HL60 cells assessed as inhibition of fMLP-induced calcium mobilization incubated for 5 mins prior to fMLP challenge by Fura-2 method
[5] = target: T2, fMet-Leu-Phe receptor (Homo sapiens); test: Antagonist activity at formyl peptide receptor in human HL60 cells assessed as inhibition of MMK1-induced calcium mobilization at 1 to 10 uM incubated for 5 mins prior to MMk1 challenge by Fura-2 method; type: functional, cell-based; details: HL-60

Structure (SMILES) | Kd [1] [µM] | also measured
CC(C)C[C@@H](NC(=O)[C@H](Cc1ccccc1)NC(=O)[C@@H](CC(C)C)NC(=O)[C@H](COC(C)(C)C)NC(=O)OC(C)(C)C)C(=O)N[C@@H](Cc1ccccc1)C(=O)O | 0.1 | 
CC(C)C[C@@H](NC(=O)[C@H](Cc1ccccc1)NC(=O)[C@@H](CC(C)C)NC(=O)[C@H](Cc1ccc(Cl)cc1)NC(=O)OC(C)(C)C)C(=O)N[C@@H](Cc1ccccc1)C(=O)O | 0.075 | 
CC(C)C[C@@H](NC(=O)[C@H](Cc1ccccc1)NC(=O)OC(C)(C)C)C(=O)N[C@H](C(=O)N[C@H](CC(C)C)C(=O)N[C@@H](Cc1ccccc1)C(=O)O)[C@@H](C)OC(C)(C)C | 0.83 | 
CC(C)C[C@@H](NC(=O)[C@H](Cc1ccccc1)NC(=O)[C@@H](CC(C)C)NC(=O)[C@@H](NC(=O)OC(C)(C)C)[C@@H](C)OC(C)(C)C)C(=O)N[C@@H](Cc1ccccc1)C(=O)O | 0.14 | 
CC(C)C[C@@H](NC(=O)[C@H](CC(=O)OC(C)(C)C)NC(=O)[C@@H](CC(C)C)NC(=O)[C@H](Cc1ccccc1)NC(=O)OC(C)(C)C)C(=O)N[C@@H](Cc1ccccc1)C(=O)O | 0.51 | 
CC(C)C[C@@H](NC(=O)[C@H](Cc1ccccc1)NC(=O)OC(C)(C)C)C(=O)N[C@@H](Cc1ccccc1)C(=O)N[C@H](CC(C)C)C(=O)N[C@H](C(=O)O)C(C)C | 0.26 | 
CC(C)C[C@@H](NC(=O)[C@H](C)NC(=O)[C@@H](CC(C)C)NC(=O)[C@H](Cc1ccccc1)NC(=O)OC(C)(C)C)C(=O)N[C@@H](Cc1ccccc1)C(=O)O | 0.28 | Activity [2]: inactive
CC(C)C[C@@H](NC(=O)[C@H](CC1=CCCCC1)NC(=O)[C@@H](CC(C)C)NC(=O)[C@H](Cc1ccc(C(=O)c2ccccc2)cc1)NC(=O)OC(C)(C)C)C(=O)N[C@@H](CC1CCCCC1)C(=O)O | 0.0069 | 
CSCC[C@H](NC(=O)[C@@H](CC(C)C)NC(=O)[C@H](Cc1ccccc1)NC(=O)OC(C)(C)C)C(=O)N[C@H](CC(C)C)C(=O)N[C@@H](Cc1ccccc1)C(=O)O | 0.13 | 
CC(C)C[C@H](NC(=O)[C@@H](CC(C)C)NC(=O)[C@H](Cc1ccccc1)NC(=O)OC(C)(C)C)C(=O)N[C@H](CC(C)C)C(=O)N[C@@H](Cc1ccccc1)C(=O)O | 0.2 | 
CC(C)C[C@@H](NC(=O)[C@H](Cc1ccccc1)NC(=O)[C@@H](CC(C)C)NC(=O)[C@H](Cc1cn(C=O)c2ccccc12)NC(=O)OC(C)(C)C)C(=O)N[C@@H](Cc1ccccc1)C(=O)O | 0.09 | 
CC(C)C[C@@H](NC(=O)[C@H](Cc1ccccc1)NC(=O)[C@@H](CC(C)C)NC(=O)[C@H](Cc1ccc(OC(C)(C)C)cc1)NC(=O)OC(C)(C)C)C(=O)N[C@@H](Cc1ccccc1)C(=O)O | 0.062 | 
CC(C)C[C@@H](NC(=O)[C@H](Cc1ccccc1)NC(=O)[C@@H](CC(C)C)NC(=O)[C@H](CCCCNC(=O)c1ccccc1)NC(=O)OC(C)(C)C)C(=O)N[C@@H](Cc1ccccc1)C(=O)O | 0.14 | 
CC(C)C[C@H](NC(=O)OC(C)(C)C)C(=O)N[C@H](CC(C)C)C(=O)N[C@@H](Cc1ccccc1)C(=O)N[C@H](CC(C)C)C(=O)N[C@@H](Cc1ccccc1)C(=O)O | 0.2 | 
CC(C)C[C@@H](NC(=O)[C@H](Cc1ccccc1)NC(=O)[C@@H](CC(C)C)NC(=O)[C@H](Cc1ccccc1)NC(=O)OC(C)(C)C)C(=O)N[C@@H](Cc1ccccc1)C(=O)O (Boc-F[dL]F[dL]F-OH) |  | inhibition [3]: inactive; Activity [2]: inactive
CC(C)C[C@@H](NC(=O)[C@H](Cc1ccccc1)NC(=O)[C@@H](CC(C)C)NC(=O)[C@H](Cc1ccccc1)NC(=O)OC(C)(C)C)C(=O)N[C@@H](CC1CCCCC1)C(=O)O | 0.077 | 
CC(C)C[C@@H](NC(=O)[C@H](CC1CCCCC1)NC(=O)[C@@H](CC(C)C)NC(=O)[C@H](Cc1ccccc1)NC(=O)OC(C)(C)C)C(=O)N[C@@H](Cc1ccccc1)C(=O)O | 0.025 | 
CC(C)C[C@@H](NC(=O)[C@H](CC1=CCCCC1)NC(=O)[C@@H](CC(C)C)NC(=O)[C@H](Cc1ccc(C(=O)c2ccccc2)cc1)NC(=O)OC(C)(C)C)C(=O)N[C@@H](Cc1ccccc1)C(=O)O | 0.0021 | IC50 [4]: 0.14 µM; inhibition [5]: inactive
CC(C)C[C@@H](NC(=O)[C@H](Cc1ccccc1)NC(=O)OC(C)(C)C)C(=O)N[C@@H](Cc1ccccc1)C(=O)N[C@@H](C)C(=O)N[C@@H](Cc1ccccc1)C(=O)O | 0.42 | Activity [2]: inactive
CC(C)C[C@@H](NC(=O)[C@H](Cc1ccccc1)NC(=O)[C@@H](CC(C)C)NC(=O)[C@H](CC1CCCCC1)NC(=O)OC(C)(C)C)C(=O)N[C@@H](Cc1ccccc1)C(=O)O | 0.066 | 
CC(C)C[C@@H](NC(=O)[C@H](Cc1ccccc1)NC(=O)[C@@H](CC(C)C)NC(=O)[C@H](Cc1ccccc1)NC(=O)OC(C)(C)C)C(=O)N[C@@H](COC(C)(C)C)C(=O)O | 0.18 | 

Further lines, with some results ahead:

Kd [1] [µM] | Structure (SMILES) | also measured
0.17 | CC(C)C[C@@H](NC(=O)[C@H](C)NC(=O)OC(C)(C)C)C(=O)N[C@@H](Cc1ccccc1)C(=O)N[C@H](CC(C)C)C(=O)N[C@@H](Cc1ccccc1)C(=O)O | Activity [2]: inactive
0.15 | CC(C)C[C@@H](NC(=O)[C@H](Cc1ccccc1)NC(=O)[C@@H](CC(C)C)NC(=O)[C@H](Cc1ccccc1)NC(=O)OC(C)(C)C)C(=O)N[C@@H](Cc1c[nH]c2ccccc12)C(=O)O | 
0.15 | CC(C)C[C@@H](NC(=O)[C@H](Cc1ccccc1)NC(=O)[C@@H](CC(C)C)NC(=O)[C@H](Cc1ccccc1)NC(=O)OC(C)(C)C)C(=O)N[C@@H](Cc1ccc(C(=O)c2ccccc2)cc1)C(=O)O | 
0.069 | CC(C)C[C@@H](NC(=O)[C@H](Cc1ccccc1)NC(=O)[C@@H](CC(C)C)NC(=O)[C@H](Cc1cn(C(=O)OC(C)(C)C)c2ccccc12)NC(=O)OC(C)(C)C)C(=O)N[C@@H](Cc1ccccc1)C(=O)O | 
0.35 | CC(C)C[C@@H](NC(=O)[C@H](Cc1ccccc1)NC(=O)[C@@H](CC(C)C)NC(=O)[C@H](Cc1ccccc1)NC(=O)OC(C)(C)C)C(=O)N[C@@H](C)C(=O)O | Activity [2]: inactive
0.12 | CC(C)C[C@@H](NC(=O)[C@H](Cc1ccccc1)NC(=O)[C@@H](CC(C)C)NC(=O)[C@H](Cc1ccccc1)NC(=O)OC(C)(C)C)C(=O)N[C@@H](Cc1cn(C(=O)OC(C)(C)C)c2ccccc12)C(=O)O | 
0.068 | CC(C)C[C@@H](NC(=O)[C@H](Cc1ccccc1)NC(=O)[C@@H](CC(C)C)NC(=O)[C@H](Cc1ccccc1)NC(=O)OC(C)(C)C)C(=O)N[C@@H](Cc1ccc(OC(C)(C)C)cc1)C(=O)O | 
> 1 | CC(C)C[C@@H](NC(=O)[C@H](Cc1ccccc1)NC(=O)OC(C)(C)C)C(=O)N[C@H](C(=O)N[C@H](CC(C)C)C(=O)N[C@@H](Cc1ccccc1)C(=O)O)C(C)C | 
0.73 | CC(C)C[C@@H](NC(=O)[C@H](Cc1ccccc1)NC(=O)[C@@H](CC(C)C)NC(=O)[C@H](CCCCN)NC(=O)OC(C)(C)C)C(=O)N[C@@H](Cc1ccccc1)C(=O)O | 
0.016 | CC(C)C[C@@H](NC(=O)[C@H](Cc1ccccc1)NC(=O)[C@@H](CC(C)C)NC(=O)[C@H](Cc1ccc(C(=O)c2ccccc2)cc1)NC(=O)OC(C)(C)C)C(=O)N[C@@H](Cc1ccccc1)C(=O)O | IC50 [4]: 0.42 µM; inhibition [5]: inactive
> 1 | CC(C)C[C@@H](NC(=O)[C@H](CCCCNC(=O)OC(C)(C)C)NC(=O)[C@@H](CC(C)C)NC(=O)[C@H](Cc1ccccc1)NC(=O)OC(C)(C)C)C(=O)N[C@@H](Cc1ccccc1)C(=O)O | 
0.15 | CC(C)C[C@@H](NC(=O)[C@H](Cc1ccccc1)NC(=O)[C@@H](CC(C)C)NC(=O)[C@H](CCCCNC(=O)C1CCCCC1)NC(=O)OC(C)(C)C)C(=O)N[C@@H](Cc1ccccc1)C(=O)O | 
0.15 | CC(C)C[C@@H](NC(=O)[C@H](Cc1ccc(C(=O)c2ccccc2)cc1)NC(=O)[C@@H](CC(C)C)NC(=O)[C@H](Cc1ccccc1)NC(=O)OC(C)(C)C)C(=O)N[C@@H](Cc1ccccc1)C(=O)O | 
0.13 | CC(C)C[C@H](NC(=O)[C@@H](CC(C)C)NC(=O)[C@H](Cc1ccccc1)NC(=O)[C@@H](CC(C)C)NC(=O)[C@H](Cc1ccccc1)NC(=O)OC(C)(C)C)C(=O)O | 
0.19 | CC(C)C[C@@H](NC(=O)[C@H](Cc1ccccc1)NC(=O)[C@@H](CC(C)C)NC(=O)[C@H](Cc1c[nH]c2ccccc12)NC(=O)OC(C)(C)C)C(=O)N[C@@H](Cc1ccccc1)C(=O)O | 
0.13 | CC(C)C[C@@H](NC(=O)[C@H](Cc1ccccc1)NC(=O)OC(C)(C)C)C(=O)N[C@@H](Cc1ccccc1)C(=O)N[C@H](CC(C)C)C(=O)N[C@H](C(=O)O)[C@@H](C)OC(C)(C)C | 
0.26 | CC(C)C[C@@H](NC(=O)[C@H](Cc1ccccc1)NC(=O)[C@H](C)NC(=O)[C@H](Cc1ccccc1)NC(=O)OC(C)(C)C)C(=O)N[C@@H](Cc1ccccc1)C(=O)O | Activity [2]: inactive
